Laboratory results published in US12139492B2 (Endotarget Inc., priority 2021, dated 2024).
Where two headings read alike, the source gives them in different places.

Experiments:
Mino cells = experiment: Antiproliferative effect, MTS cell viability assay, Mino cells; type: cell-based; conditions: Homo sapiens, Mino mantle cell lymphoma cells, read-out: IC50 (anti-proliferation) Mino cells
Method in brief: (§1)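 Readout was MTS-derived formazan absorbance (490 nm) reflecting metabolically active cells. Treatment lasted 72 h over a 0–10 μM range (0.001, 0.01, 0.1, 1, 10 μM) in JeKo-1 and Mino B-cell malignancy cells.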

JeKo-1 cells = experiment: Antiproliferative effect, MTS cell viability assay, JeKo-1 cells; type: cell-based; conditions: Homo sapiens; JeKo-1 mantle cell lymphoma cells; read-out: IC50 (anti-proliferation) JeKO-1 cells
Method in brief: as §1

BTK = BTK (Homo sapiens, UniProt Q06187); experiment: Degradation of BTK protein in Namalwa cells (Western blot; DC50, Dmax); conditions: for DC50: cell line not given
Chain of BTK (Q06187 whole entry): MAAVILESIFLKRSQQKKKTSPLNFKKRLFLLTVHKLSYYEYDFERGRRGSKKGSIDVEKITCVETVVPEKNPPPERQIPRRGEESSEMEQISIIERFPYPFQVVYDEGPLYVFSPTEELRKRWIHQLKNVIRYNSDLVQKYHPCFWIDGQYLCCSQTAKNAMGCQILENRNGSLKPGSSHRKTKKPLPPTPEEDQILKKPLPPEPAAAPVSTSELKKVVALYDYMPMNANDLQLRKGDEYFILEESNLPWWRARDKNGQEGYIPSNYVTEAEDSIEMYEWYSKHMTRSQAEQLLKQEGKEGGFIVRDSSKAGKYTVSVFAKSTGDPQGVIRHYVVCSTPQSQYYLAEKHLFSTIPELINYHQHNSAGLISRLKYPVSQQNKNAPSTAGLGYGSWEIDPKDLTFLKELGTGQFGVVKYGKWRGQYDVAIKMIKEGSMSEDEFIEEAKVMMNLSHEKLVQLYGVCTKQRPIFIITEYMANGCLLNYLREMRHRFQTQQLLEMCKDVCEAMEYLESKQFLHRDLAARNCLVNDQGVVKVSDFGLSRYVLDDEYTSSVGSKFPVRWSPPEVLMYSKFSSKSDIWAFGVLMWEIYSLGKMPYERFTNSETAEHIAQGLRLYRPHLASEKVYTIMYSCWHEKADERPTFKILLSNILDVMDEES

[1] = read-out: DC50 (BTK degradation), concentration giving 50% reduction of BTK expression level
[2] = read-out: Dmax (BTK degradation)

Structure (SMILES) | Dmax (BTK) [%] | DC50 (BTK; BTK degradation) [µM] | DC50 (BTK; [1]) [µM] | Dmax (BTK; [2]) [%] | IC50 (Mino cells; MINO) [µM] | IC50 (JeKo-1 cells) [µM] | IC50 (Mino cells) [µM] | degradation of BTK protein (BTK; Namalwa B lymphocyte cells, various concentrations, 24 hours, Western blot)
Nc1ncnc2c1c(-c1ccc(Oc3ccccc3)cc1)nn2C1CCN(CC2CC(N3CCN(c4ccc5c(c4)CN(C4CCC(=O)NC4=O)C5=O)CC3)C2)CC1 (stereo not drawn) [Compound 531, 3-(5-(4-(3-((4-(4-amino-3-(4-phenoxyphenyl)-1H-pyrazolo[3,4-d]pyrimidin-1-yl)piperidin-1-yl)methyl)cyclobutyl)piperazin-1-yl)-1-oxoisoindolin-2-yl)piperidine-2,6-dione] |  |  | < 0.01 | > 90 | < 1 | < 1 |  | 
Nc1ncnc2c1c(-c1ccc(Oc3ccccc3)cc1)nn2C1CCN(C2CCN(C(=O)N3CCC(c4ccc5c(c4)C(=O)N(C4CCC(=O)NC4=O)C5=O)CC3)CC2)CC1 (stereo not drawn) [Compound 227, 5-(1-(4-(4-amino-3-(4-phenoxyphenyl)-1H-pyrazolo[3,4-d]pyrimidin-1-yl)-[1,4′-bipiperidine]-1′-carbonyl)piperidin-4-yl)-2-(2,6-dioxopiperidin-3-yl)isoindoline-1,3-dione] | > 50 | > 0.05 |  |  | > 10 | > 10 |  | 
Nc1ncnc2c1c(-c1ccc(Oc3ccccc3)cc1)nn2C1CCN(C[C@@H]2CCN(CC3CN(CC4CN(c5ccc6c(c5)C(=O)N(C5CCC(=O)NC5=O)C6=O)C4)C3)C2)CC1 (stereo partly drawn) [Compound 427b, 5-(3-((3-(((S)-3-((4-(4-amino-3-(4-phenoxyphenyl)-1H-pyrazolo[3,4-d]pyrimidin-1-yl)piperidin-1-yl)methyl)pyrrolidin-1-yl)methyl)azetidin-1-yl)methyl)azetidin-1-yl)-2-(2,6-dioxopiperidin-3-yl)isoindoline-1,3-dione] |  |  | > 0.05 | > 90 | 1 to 10 | 1 to 10 |  | 
Nc1ncnc2c1c(-c1ccc(Oc3ccccc3)cc1)nn2C1CCN(CC2CCN(CCCN3CCC(c4ccc5c(c4)CN(C4CCC(=O)NC4=O)C5=O)CC3)CC2)CC1 (stereo not drawn) [Compound 210, 3-(5-(1-(3-(4-((4-(4-amino-3-(4-phenoxyphenyl)-1H-pyrazolo[3,4-d]pyrimidin-1-yl)piperidin-1-yl)methyl)piperidin-1-yl)propyl)piperidin-4-yl)-1-oxoisoindolin-2-yl)piperidine-2,6-dione] | > 75 | 0.01 to 0.05 |  |  | 1 to 10 | 1 to 10 |  | 
Nc1ncnc2c1c(-c1ccc(Oc3ccccc3)cc1)nn2C1CCN(CC2CCN(CCC3CCN(c4ccc5c(c4)C(=O)N(C4CCC(=O)NC4=O)C5=O)CC3)CC2)CC1 (stereo not drawn) [Compound 201, 5-(4-(2-(4-((4-(4-amino-3-(4-phenoxyphenyl)-1H-pyrazolo[3,4-d]pyrimidin-1-yl)piperidin-1-yl)methyl)piperidin-1-yl)ethyl)piperidin-1-yl)-2-(2,6-dioxopiperidin-3-yl)isoindoline-1,3-dione] | > 90 | 0.01 to 0.05 |  |  | 1 to 10 | 1 to 10 |  | 
Nc1ncnc2c1c(-c1ccc(Oc3ccccc3)cc1)nn2C1CCN(CCN2CCC(N3CCN(c4ccc5c(c4)CN(C4CCC(=O)NC4=O)C5=O)CC3)C2)CC1 (stereo not drawn) [Compound 460, 3-(5-(4-(1-(2-(4-(4-amino-3-(4-phenoxyphenyl)-1H-pyrazolo[3,4-d]pyrimidin-1-yl)piperidin-1-yl)ethyl)pyrrolidin-3-yl)piperazin-1-yl)-1-oxoisoindolin-2-yl)piperidine-2,6-dione] |  |  | 0.01 to 0.05 | > 75 | 1 to 10 | 1 to 10 |  | 
Nc1ncnc2c1c(-c1ccc(Oc3ccccc3)cc1)nn2C1CCN(CCN2CCC(N3CCN(c4ccc5c(c4)C(=O)N(C4CCC(=O)NC4=O)C5=O)CC3)C2)CC1 (stereo not drawn) [Compound 459, 5-(4-(1-(2-(4-(4-amino-3-(4-phenoxyphenyl)-1H-pyrazolo(3,4-d)pyrimidin-1-yl)piperidin-1-yl)ethyl)pyrrolidin-3-yl)piperazin-1-yl)-2-(2,6-dioxopiperidin-3-yl)isoindoline-1,3-dione] |  |  | < 0.01 | > 90 |  | < 1 | < 1 | 
Nc1ncnc2c1c(-c1ccc(Oc3ccccc3)cc1)nn2C1CCN(C2CCN(CCCC3CCN(c4ccc5c(c4)CN(C4CCC(=O)NC4=O)C5=O)CC3)CC2)CC1 (stereo not drawn) [Compound 226, 3-(5-(4-(3-(4-(4-amino-3-(4-phenoxyphenyl)-1H-pyrazolo[3,4-d]pyrimidin-1-yl)-[1,4′-bipiperidin]-1′-yl)propyl)piperidin-1-yl)-1-oxoisoindolin-2-yl)piperidine-2,6-dione] | > 75 | 0.01 to 0.05 |  |  | 1 to 10 | > 10 |  | 
Nc1ncnc2c1c(-c1ccc(Oc3ccccc3)cc1)nn2C1CCN(C2CCN(CC3CCN(c4ccc5c(c4)CN(C4CCC(=O)NC4=O)C5=O)CC3)CC2)CC1 (stereo not drawn) [Compound 214] | < 50 | > 0.05 |  |  |  | 1 to 10 | 1 to 10 | dose-dependent degradation
Nc1ncnc2c1c(-c1ccc(Oc3ccccc3)cc1)nn2C1CCN(C2CCN(CC3CCN(c4ccc(N5CCC(=O)NC5=O)cc4)CC3)C2)CC1 (stereo not drawn) [Compound 573, 1-(4-(4-((3-(4-(4-amino-3-(4-phenoxyphenyl)-1H-pyrazolo[3,4-d]pyrimidin-1-yl)piperidin-1-yl)pyrrolidin-1-yl)methyl)piperidin-1-yl)phenyl)dihydropyrimidine-2,4(1H,3H)-dione] |  |  | < 0.01 | > 75 | 1 to 10 | < 1 |  | 
NC(=O)c1c(-c2ccc(Oc3ccccc3)cc2)nn2c1NCC[C@H]2C1CCN(C(=O)N2CCN(CCN3CCC(c4ccc5c(c4)CN(C4CCC(=O)NC4=O)C5=O)CC3)CC2)CC1 (stereo partly drawn) [Compound 304, (7S)-7-(1-(4-(2-(4-(2-(2,6-dioxopiperidin-3-yl)-1-oxoisoindolin-5-yl)piperidin-1-yl)ethyl)piperazine-1-carbonyl)piperidin-4-yl)-2-(4-phenoxyphenyl)-4,5,6,7-tetrahydropyrazolo[1,5-a]pyrimidine-3-carboxamide] | > 75 | 0.01 to 0.05 |  |  | 1 to 10 | 1 to 10 |  | 

The next lines start with results.

Dmax (BTK) [%] | DC50 (BTK; BTK degradation) [µM] | DC50 (BTK; [1]) [µM] | Dmax (BTK; [2]) [%] | Structure (SMILES) | IC50 (Mino cells; MINO) [µM] | IC50 (JeKo-1 cells) [µM] | IC50 (Mino cells) [µM] | degradation of BTK protein (BTK; Namalwa B lymphocyte cells, various concentrations, 24 hours, Western blot)
> 90 | < 0.01 |  |  | NC(=O)c1c(-c2ccc(Oc3ccccc3)cc2)nn2c1NCCC2C1CCN(C2CCN(C(=O)N3CCC(CN4CCC(c5ccc6c(c5)C(=O)N(C5CCC(=O)NC5=O)C6=O)CC4)CC3)CC2)CC1 (stereo not drawn) [Compound 355, 7-(1′-(4-((4-(2-(2,6-dioxopiperidin-3-yl)-1,3-dioxoisoindolin-5-yl)piperidin-1-yl)methyl)piperidine-1-carbonyl)-[1,4′-bipiperidin]-4-yl)-2-(4-phenoxyphenyl)-4,5,6,7-tetrahydropyrazolo[1,5-a]pyrimidine-3-carboxamide] | 1 to 10 | 1 to 10 |  | 
> 90 | 0.01 to 0.05 |  |  | NC(=O)c1c(-c2ccc(Oc3ccccc3)cc2)nn2c1NCCC2C1CCN(CC2CCN(C(=O)N3CCC(N4CCN(c5ccc6c(c5)C(=O)N(C5CCC(=O)NC5=O)C6=O)CC4)CC3)CC2)CC1 (stereo not drawn) [Compound 363, 7-(1-((1-(4-(4-(2-(2,6-dioxopiperidin-3-yl)-1,3-dioxoisoindolin-5-yl)piperazin-1-yl)piperidine-1-carbonyl)piperidin-4-yl)methyl)piperidin-4-yl)-2-(4-phenoxyphenyl)-4,5,6,7-tetrahydropyrazolo[1,5-a]pyrimidine-3-carboxamide] | < 1 | 1 to 10 |  | 
> 90 | < 0.01 |  |  | Nc1ncnc2c1c(-c1ccc(Oc3ccccc3)cc1)nn2C1CCN(C2CCN(C(=O)N3CCC(CN4CCC(c5ccc6c(c5)C(=O)N(C5CCC(=O)NC5=O)C6=O)CC4)CC3)CC2)CC1 (stereo not drawn) [Compound 243, 5-(1-((1-(4-(4-amino-3-(4-phenoxyphenyl)-1H-pyrazolo[3,4-d]pyrimidin-1-yl)-[1,4′-bipiperidine]-1′-carbonyl)piperidin-4-yl)methyl)piperidin-4-yl)-2-(2,6-dioxopiperidin-3-yl)isoindoline-1,3-dione] | 1 to 10 | 1 to 10 |  | 
> 75 | > 0.05 |  |  | NC(=O)c1c(-c2ccc(Oc3ccccc3)cc2)nn2c1NCCC2C1CCN(C(=O)N2CCC(CCN3CCC(c4ccc5c(c4)C(=O)N(C4CCC(=O)NC4=O)C5=O)CC3)CC2)CC1 (stereo not drawn) [Compound 285, 7-(1-(4-(2-(4-(2-(2,6-dioxopiperidin-3-yl)-1,3-dioxoisoindolin-5-yl)piperidin-1-yl)ethyl)piperidine-1-carbonyl)piperidin-4-yl)-2-(4-phenoxyphenyl)-4,5,6,7-tetrahydropyrazolo[1,5-a]pyrimidine-3-carboxamide] | 1 to 10 | 1 to 10 |  | 
> 75 | > 0.05 |  |  | NC(=O)c1c(-c2ccc(Oc3ccccc3)cc2)nn2c1NCCC2C1CCN(CC2CCN(CCN3CCN(c4ccc5c(c4)C(=O)N(C4CCC(=O)NC4=O)C5=O)CC3)CC2)CC1 (stereo not drawn) [Compound 315, 7-(1-((1-(2-(4-(2-(2,6-dioxopiperidin-3-yl)-1,3-dioxoisoindolin-5-yl)piperazin-1-yl)ethyl)piperidin-4-yl)methyl)piperidin-4-yl)-2-(4-phenoxyphenyl)-4,5,6,7-tetrahydropyrazolo[1,5-a]pyrimidine-3-carboxamide] | 1 to 10 | 1 to 10 |  | 
> 90 | 0.01 to 0.05 |  |  | NC(=O)c1c(-c2ccc(Oc3ccccc3)cc2)nn2c1NCC[C@H]2C1CCN(C2CCN(CC3CCN(c4ccc5c(c4)CN(C4CCC(=O)NC4=O)C5=O)CC3)CC2)CC1 (stereo partly drawn) [Compound 322, (7S)-7-(1′-((1-(2-(2,6-dioxopiperidin-3-yl)-1-oxoisoindolin-5-yl)piperidin-4-yl)methyl)-[1,4′-bipiperidin]-4-yl)-2-(4-phenoxyphenyl)-4,5,6,7-tetrahydropyrazolo[1,5-a]pyrimidine-3-carboxamide] | 1 to 10 | 1 to 10 |  | 
